Measurements reported in publication PMC6261661 (ACS chemical neuroscience, 2018).
Square brackets hold non-standard residues; d marks the D form. Peptide text beside a SMILES is read from it. * marks the point of attachment. dBip = N[C@H](Cc1ccc(-c2ccccc2)cc1)C(=O)O; dPhe(4-I) = N[C@H](Cc1ccc(I)cc1)C(=O)O; 1Nal = N[C@@H](Cc1cccc2ccccc12)C(=O)O; 2Nal = N[C@@H](Cc1ccc2ccccc2c1)C(=O)O; d1Nal = N[C@H](Cc1cccc2ccccc12)C(=O)O; d2Nal = N[C@H](Cc1ccc2ccccc2c1)C(=O)O; Bta = N[C@@H](Cc1csc2ccccc12)C(=O)O; 3Pal = N[C@@H](Cc1cccnc1)C(=O)O; Tic = O=C(O)[C@@H]1Cc2ccccc2CN1; 2Thi = N[C@@H](Cc1cccs1)C(=O)O; Octanoyl = CCCCCCCC(=O)*

Legend:
Type in all cases: cell-based
mMC5R = mMC5R (Mus musculus, UniProt P41149); assay: CRE/β-galactosidase reporter gene bioassay, agonist activity at mMC5R; details: for mMC5R pharmacology in words: comparisons are to reference peptide 1; for mMC5R Fold Diff.: fold difference in EC50 vs peptide 1, negative prefix = more potent than 1; for mMC5R fold less potent than peptide 1: less potent than 1
mMC1R = mMC1R (Mus musculus, UniProt Q01727); assay: CRE/β-galactosidase reporter gene bioassay, agonist activity at mMC1R; details: for mMC1R Fold Diff: fold difference in EC50 vs peptide 1, negative prefix = more potent than 1; for EC50: mMC1R EC50, agonist, HEK-293 cells stably expressing receptor, ±SEM; for mMC1R fold difference in EC50, more potent than reference peptide 1: more potent agonist than 1; for mMC1R pharmacology in words: comparisons are to reference peptide 1; for mMC1R fold decrease in potency compared to compound 1: less potent than 1
mMC3R [1] = molecular target: T1, mMC3R (Mus musculus, UniProt P33033); assay: cell-based; details: for mMC3R Fold Diff: fold difference in EC50 vs peptide 1, negative prefix = more potent than 1
mMC4R = mMC4R (Mus musculus, UniProt P56450); assay: CRE/β-galactosidase reporter gene bioassay, agonist activity at mMC4R; details: for mMC4R Fold Diff.: fold difference in EC50 vs peptide 1, negative prefix = more potent than 1; for mMC4R fold less potent than compound 1: less potent than 1
mMC3R [2] = molecular target: T1, mMC3R; assay: Antagonist Schild analysis against agonist MTII at mMC3R
[3] = ligand at 100 μM, compared to maximal response generated by α-MSH

T1 sequence (P33033 whole entry): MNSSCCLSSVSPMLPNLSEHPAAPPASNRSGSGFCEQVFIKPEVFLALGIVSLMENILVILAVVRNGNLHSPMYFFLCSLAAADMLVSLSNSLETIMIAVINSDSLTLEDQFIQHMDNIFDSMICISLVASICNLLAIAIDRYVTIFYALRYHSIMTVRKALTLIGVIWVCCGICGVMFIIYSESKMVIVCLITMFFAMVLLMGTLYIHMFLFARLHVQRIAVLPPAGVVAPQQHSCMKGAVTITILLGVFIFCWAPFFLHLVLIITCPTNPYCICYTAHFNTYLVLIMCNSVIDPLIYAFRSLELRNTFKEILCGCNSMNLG
Sequence of mMC1R (Q01727 whole entry): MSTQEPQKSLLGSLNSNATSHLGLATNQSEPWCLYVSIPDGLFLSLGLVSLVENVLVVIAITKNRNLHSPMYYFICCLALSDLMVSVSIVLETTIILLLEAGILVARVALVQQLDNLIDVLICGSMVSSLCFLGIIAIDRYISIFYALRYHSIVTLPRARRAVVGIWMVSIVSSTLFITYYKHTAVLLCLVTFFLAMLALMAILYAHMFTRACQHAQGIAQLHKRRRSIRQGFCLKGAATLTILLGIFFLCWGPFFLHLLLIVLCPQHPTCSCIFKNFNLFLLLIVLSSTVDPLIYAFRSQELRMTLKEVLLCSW
Sequence of mMC4R (P56450 whole entry): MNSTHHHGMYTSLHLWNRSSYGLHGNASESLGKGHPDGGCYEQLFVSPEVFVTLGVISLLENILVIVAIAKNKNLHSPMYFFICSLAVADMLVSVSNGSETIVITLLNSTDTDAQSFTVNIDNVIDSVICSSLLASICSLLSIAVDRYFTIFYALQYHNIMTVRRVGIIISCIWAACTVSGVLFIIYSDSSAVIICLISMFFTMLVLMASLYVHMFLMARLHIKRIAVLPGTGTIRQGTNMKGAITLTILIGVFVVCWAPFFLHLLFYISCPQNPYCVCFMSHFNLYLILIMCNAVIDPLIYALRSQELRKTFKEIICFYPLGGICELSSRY
Sequence of mMC5R (P41149 whole entry): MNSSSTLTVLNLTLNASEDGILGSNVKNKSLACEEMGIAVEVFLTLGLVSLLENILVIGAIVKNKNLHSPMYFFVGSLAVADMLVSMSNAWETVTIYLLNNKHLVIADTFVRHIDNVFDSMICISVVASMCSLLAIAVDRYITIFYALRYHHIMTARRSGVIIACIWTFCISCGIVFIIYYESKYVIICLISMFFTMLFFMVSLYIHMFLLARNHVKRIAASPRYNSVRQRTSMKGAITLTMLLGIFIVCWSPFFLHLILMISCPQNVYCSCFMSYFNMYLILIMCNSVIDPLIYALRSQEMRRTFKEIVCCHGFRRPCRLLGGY

| EC50 (mMC5R) [µM] | mMC1R Fold Diff (mMC1R) | EC50 (mMC1R) [µM] | EC50 (mMC3R [1]) [µM] | mMC5R pharmacology in words (mMC5R) | EC50 (mMC4R) [µM] | mMC5R Fold Diff. (mMC5R) | mMC4R Fold Diff. (mMC4R) | Compound | other results |
| --- | --- | --- | --- | --- | --- | --- | --- | --- | --- |
| 0.0053 ± 0.0016 | – | – | – | – | – | – | – | CC(=O)N[C@@H](Cc1cnc[nH]1)C(=O)N[C@H](Cc1ccccc1)C(=O)N[C@@H](CCCN=C(N)N)C(=O)N[C@@H](Cc1c[nH]c2ccccc12)C(N)=O [Peptide 1, Ac-His-DPhe-Arg-Trp-NH2, reference compound] | – |
| 0.0024 ± 0.0005 | −10 | 0.0146 ± 0.0039 | 0.052 ± 0.007 | equipotent | 0.013 ± 0.003 | – | – | CCCCCCCC(=O)N[C@@H](Cc1c[nH]cn1)C(=O)N[C@H](Cc1ccccc1)C(=O)N[C@@H](CCCNC(=N)N)C(=O)N[C@@H](Cc1csc2ccccc12)C(N)=O [Peptide 3, Octanoyl-His-DPhe-Arg-3Bal-NH2] (Octanoyl-H[dF]R[Bta]-NH2) | mMC1R fold difference in EC50, more potent than reference peptide 1 (mMC1R): 10 fold; mMC3R Fold Diff (mMC3R [1]): −11; mMC3R fold difference, more potent agonist than Ac-His-DPhe-Arg-Trp-NH2 (mMC3R [1]; more potent than 1): 11 fold |
| 0.27 ± 0.02 | −20 | 0.0074 ± 0.0021 | 6.9 ± 0.4 | decreased potencies | 1.7 ± 0.3 | 50 | 120 | CCCCCCCC(=O)N[C@@H](Cc1c[nH]cn1)C(=O)N[C@H](Cc1ccccc1)C(=O)N[C@@H](CCCNC(=N)N)C(=O)N1Cc2ccccc2C[C@H]1C(N)=O [Peptide 4, Octanoyl-His-DPhe-Arg-Tic-NH2] (Octanoyl-H[dF]R[Tic]-NH2) | mMC3R Fold Diff (mMC3R [1]): 12; mMC5R fold less potent than peptide 1 (mMC5R): 50 fold |
| 0.026 ± 0.003 | −7 | 0.0194 ± 0.0021 | 0.29 ± 0.06 | decreased potencies | 0.11 ± 0.01 | 5 | 8 | CCCCCCCC(=O)N[C@@H](Cc1c[nH]cn1)C(=O)N[C@H](Cc1ccccc1)C(=O)N[C@@H](CCCNC(=N)N)C(=O)N[C@@H](Cc1ccccc1)C(N)=O [Peptide 5, Octanoyl-His-DPhe-Arg-Phe-NH2] (Octanoyl-H[dF]RF-NH2) | – |
| 0.29 ± 0.04 | – | 0.23 ± 0.03 | 4.2 ± 0.8 | decreased potencies | 0.34 ± 0.03 | 55 | 25 | CCCCCCCC(=O)N[C@H](Cc1c[nH]cn1)C(=O)N[C@H](Cc1ccccc1)C(=O)N[C@@H](CCCNC(=N)N)C(=O)N[C@@H](Cc1c[nH]c2ccccc12)C(N)=O [Peptide 9, Octanoyl-DHis-DPhe-Arg-Trp-NH2] | mMC3R Fold Diff (mMC3R [1]): 7; mMC5R fold less potent than peptide 1 (mMC5R): 55 fold |
| 0.058 ± 0.007 | – | 0.21 ± 0.03 | – | decreased potencies | 0.18 ± 0.04 | 11 | 13 | CCCCCCCC(=O)N[C@@H](Cc1c[nH]c2ccccc12)C(=O)N[C@H](Cc1ccccc1)C(=O)N[C@@H](CCCNC(=N)N)C(=O)N[C@@H](Cc1c[nH]c2ccccc12)C(N)=O [Peptide 10, Octanoyl-Trp-DPhe-Arg-Trp-NH2] (Octanoyl-W[dF]RW-NH2) | mMC1R pharmacology in words (mMC1R): equipotent; mMC3R relative percentage of stimulation at 100 μM (mMC3R [1]; 100000.0): 50%−65% |
| 3.9 ± 2.2 | 70 | 9.7 ± 4.7 | > 100 | – | 12 ± 4 | 725 | 870 | CC(=O)N[C@@H](Cc1c[nH]c2ccccc12)C(=O)N[C@H](Cc1cccc2ccccc12)C(=O)N[C@@H](CCCNC(=N)N)C(=O)N[C@@H](Cc1c[nH]c2ccccc12)C(N)=O [Peptide 19, Ac-Trp-DNal(1’)-Arg-Trp-NH2] (Ac-W[d1Nal]RW-NH2) | – |
| 0.5 ± 0.07 | 71 | 10 ± 4.9 | > 100 | – | 5.4 ± 1.6 | 94 | 395 | CC(=O)N[C@@H](Cc1ccccc1)C(=O)N[C@H](Cc1ccc(-c2ccccc2)cc1)C(=O)N[C@@H](CCCNC(=N)N)C(=O)N[C@@H](Cc1c[nH]c2ccccc12)C(N)=O [Peptide 20, Ac-Phe-DBip-Arg-Trp-NH2] (Ac-F[dBip]RW-NH2) | – |
| 3.8 ± 2.1 | 28 | 3.9 ± 1.9 | > 100 | – | 2.8 ± 1 | 720 | 205 | CC(=O)N[C@@H](Cc1ccccc1)C(=O)N[C@H](Cc1cccc2ccccc12)C(=O)N[C@@H](CCCNC(=N)N)C(=O)N[C@@H](Cc1c[nH]c2ccccc12)C(N)=O [Peptide 21, Ac-Phe-DNal(1’)-Arg-Trp-NH2] (Ac-F[d1Nal]RW-NH2) | – |
| 0.24 ± 0.05 | 14 | 1.9 ± 0.6 | > 100 | – | 0.11 ± 0.02 | 45 | 8 | CC(=O)N[C@@H](Cc1cccnc1)C(=O)N[C@H](Cc1ccccc1)C(=O)N[C@@H](CCCNC(=N)N)C(=O)N[C@@H](Cc1ccc2ccccc2c1)C(N)=O [Peptide 23, Ac-3PAL-DPhe-Arg-Nal(2’)-NH2] (Ac-[3Pal][dF]R[2Nal]-NH2) | mMC1R fold decrease in potency compared to compound 1 (mMC1R): 14 fold; mMC4R fold less potent than compound 1 (mMC4R): 8 fold |
| 3 ± 1.2 | 23 | 3.3 ± 1.2 | – | – | 1.1 ± 0.3 | 566 | 77 | CC(=O)N[C@@H](Cc1c[nH]c2ccccc12)C(=O)N[C@H](Cc1ccccc1)C(=O)N[C@@H](CCCNC(=N)N)C(=O)N[C@@H](Cc1cccc2ccccc12)C(N)=O [Peptide 24, Ac-Trp-DPhe-Arg-Nal(1’)-NH2] (Ac-W[dF]R[1Nal]-NH2) | mMC3R relative percentage of stimulation at 100 μM (mMC3R [1]; 100000.0): 50% |
| 4.8 ± 1.7 | 57 | 8 ± 3 | > 100 | – | 7.9 ± 2.4 | 905 | 576 | CC(=O)N[C@@H](Cc1c[nH]c2ccccc12)C(=O)N[C@H](Cc1ccccc1)C(=O)N[C@@H](CCCNC(=N)N)C(=O)N[C@@H](Cc1csc2ccccc12)C(N)=O [Peptide 25, Ac-Trp-DPhe-Arg-3Bal-NH2] (Ac-W[dF]R[Bta]-NH2) | mMC5R fold less potent than peptide 1 (mMC5R): approximately 1000 fold; mMC4R fold less potent than compound 1 (mMC4R): 580 fold |
| 5.8 ± 0.6 | 167 | 23 ± 7 | > 100 | – | 4.3 ± 0.8 | 1094 | 310 | CC(=O)N[C@@H](Cc1c[nH]c2ccccc12)C(=O)N[C@H](Cc1ccccc1)C(=O)N[C@@H](CCCNC(=N)N)C(=O)N[C@H](Cc1ccc2ccccc2c1)C(N)=O [Peptide 26, Ac-Trp-DPhe-Arg-DNal(2’)-NH2] (Ac-W[dF]R[d2Nal]-NH2) | mMC1R fold decrease in potency compared to compound 1 (mMC1R): > 160 fold; mMC5R fold less potent than peptide 1 (mMC5R): approximately 1000 fold |
| 0.97 ± 0.29 | 45 | 6.4 ± 1.6 | > 100 | – | 1.3 ± 0.3 | 183 | 91 | CC(=O)N[C@@H](Cc1cccs1)C(=O)N[C@H](Cc1ccccc1)C(=O)N[C@@H](CCCNC(=N)N)C(=O)N[C@@H](Cc1csc2ccccc12)C(N)=O [Peptide 27, Ac-2Thi-DPhe-Arg-3Bal-NH2] (Ac-[2Thi][dF]R[Bta]-NH2) | – |
| 0.076 ± 0.018 | 19 | 2.6 ± 1.3 | 12 ± 6 | – | 0.45 ± 0.19 | 14 | 33 | CC(=O)N[C@@H](Cc1cccs1)C(=O)N[C@H](Cc1ccccc1)C(=O)N[C@@H](CCCNC(=N)N)C(=O)N[C@@H](Cc1ccc2ccccc2c1)C(N)=O [Peptide 28, Ac-2Thi-DPhe-Arg-Nal(2’)-NH2] (Ac-[2Thi][dF]R[2Nal]-NH2) | mMC3R Fold Diff (mMC3R [1]): 22; mMC5R fold less potent than peptide 1 (mMC5R): 14 fold; fold more potent at the mMC5R compared to the mMC1R (mMC5R; selectivity, agonist EC50): 35 fold; fold more potent at the mMC5R compared to the mMC3R (mMC5R; selectivity, agonist EC50): 163 fold; fold more potent at the mMC5R compared to the mMC4R (mMC5R; selectivity, agonist EC50): 6 fold |

| Compound | EC50 (mMC5R) [µM] | mMC1R Fold Diff (mMC1R) | EC50 (mMC1R) [µM] | EC50 (mMC3R [1]) [µM] | mMC5R pharmacology in words (mMC5R) | EC50 (mMC4R) [µM] | mMC5R Fold Diff. (mMC5R) | mMC4R Fold Diff. (mMC4R) | other results |
| --- | --- | --- | --- | --- | --- | --- | --- | --- | --- |
| CCCCCCCC(=O)N[C@@H](Cc1c[nH]cn1)C(=O)N[C@H](Cc1ccc(-c2ccccc2)cc1)C(=O)N[C@@H](CCCNC(=N)N)C(=O)N[C@@H](Cc1c[nH]c2ccccc12)C(N)=O [Peptide 7, Octanoyl-His-DBip-Arg-Trp-NH2] | 0.015 ± 0.004 | −40 | 0.0037 ± 0.0009 | – | equipotent | 0.5 ± 0.2 | – | 36 | mMC1R fold difference in EC50, more potent than reference peptide 1 (mMC1R): 40 fold; mMC3R relative percentage of stimulation at 100 μM (mMC3R [1]; 100000.0): 50%−65%; mMC3R relative percentage of stimulation at 100 μM (mMC3R [1]; [3]): 60%; Kb (mMC3R [2]): 0.0631 µM; mMC3R pharmacology class printed in Fold Diff column (Ant, SA) (mMC3R [2]; Ant = antagonist, SA = some stimulatory activity at 100 µM): Ant |
| CC(=O)N[C@@H](Cc1c[nH]cn1)C(=O)N[C@H](Cc1ccc(I)cc1)C(=O)N[C@@H](CCCNC(=N)N)C(=O)N1Cc2ccccc2C[C@H]1C(N)=O [Peptide 31, Ac-His-(pI)DPhe-Arg-Tic-NH2] (Ac-H[dPhe(4-I)]R[Tic]-NH2) | 0.13 ± 0.03 | −6 | 0.024 ± 0.004 | 2.9 ± 0.4 | less potent | 0.64 ± 0.06 | 25 | 46 | selectivity for the mMC1R, fold difference as compared to the mMC3R (mMC1R; agonist EC50): 120 fold; selectivity for the mMC1R, fold difference as compared to the mMC4R (mMC1R; agonist EC50): 26 fold; selectivity for the mMC1R, fold difference as compared to the mMC5R (mMC1R; agonist EC50): 6 fold; mMC1R pharmacology in words (mMC1R): more potent; mMC3R Fold Diff (mMC3R [1]): 5 |
| CC(=O)N[C@@H](Cc1c[nH]cn1)C(=O)N[C@H](Cc1ccc(I)cc1)C(=O)N[C@@H](CCCNC(=N)N)C(=O)N[C@@H](Cc1ccccc1)C(N)=O [Peptide 32, Ac-His-(pI)DPhe-Arg-Phe-NH2] (Ac-H[dPhe(4-I)]RF-NH2) | 0.0184 ± 0.0057 | – | 0.091 ± 0.013 | – | equipotent agonists | 0.08 ± 0.007 | – | 6 | mMC3R relative percentage of stimulation at 100 μM (mMC3R [1]; [3]): 60% at 100 μM |
